Data: patent publication US11548870B2, “Compounds useful as inhibitors of helios protein” (Bristol-Myers Squibb Company, priority 2019, dated 2023)
Read-outs that look alike come from different tables or passages of the source.

What was measured:
Helios = biological target: T1, Helios (Homo sapiens, UniProt Q96SW2+Q9UKS7); test: Helios Cellular Degradation Assay (flow cytometry, Helios-PE antibody staining, 72 h); type: cell-based; conditions: for Dmax: Jurkat, read-out: Helios Dmax
T1 construct: fluorescently labelled antibodies against Helios and Ikaros; endogenous in cells; host or cells: Jurkat cells
T1 sequence (Q9UKS7 whole entry): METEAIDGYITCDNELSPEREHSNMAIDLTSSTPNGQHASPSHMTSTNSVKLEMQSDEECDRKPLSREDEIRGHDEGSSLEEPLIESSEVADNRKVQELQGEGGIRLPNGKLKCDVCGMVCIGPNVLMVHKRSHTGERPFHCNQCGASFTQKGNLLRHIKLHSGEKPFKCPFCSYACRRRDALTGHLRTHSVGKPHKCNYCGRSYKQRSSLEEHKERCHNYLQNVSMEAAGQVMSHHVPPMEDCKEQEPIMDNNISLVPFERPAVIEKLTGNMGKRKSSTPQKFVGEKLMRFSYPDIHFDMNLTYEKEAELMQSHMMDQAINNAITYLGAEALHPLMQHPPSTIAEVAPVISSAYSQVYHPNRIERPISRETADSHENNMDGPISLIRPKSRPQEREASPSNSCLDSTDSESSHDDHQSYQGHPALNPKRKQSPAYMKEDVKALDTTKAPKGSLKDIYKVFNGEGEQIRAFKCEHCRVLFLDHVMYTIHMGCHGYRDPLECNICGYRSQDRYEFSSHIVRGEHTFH
T1 sequence (Q96SW2 whole entry): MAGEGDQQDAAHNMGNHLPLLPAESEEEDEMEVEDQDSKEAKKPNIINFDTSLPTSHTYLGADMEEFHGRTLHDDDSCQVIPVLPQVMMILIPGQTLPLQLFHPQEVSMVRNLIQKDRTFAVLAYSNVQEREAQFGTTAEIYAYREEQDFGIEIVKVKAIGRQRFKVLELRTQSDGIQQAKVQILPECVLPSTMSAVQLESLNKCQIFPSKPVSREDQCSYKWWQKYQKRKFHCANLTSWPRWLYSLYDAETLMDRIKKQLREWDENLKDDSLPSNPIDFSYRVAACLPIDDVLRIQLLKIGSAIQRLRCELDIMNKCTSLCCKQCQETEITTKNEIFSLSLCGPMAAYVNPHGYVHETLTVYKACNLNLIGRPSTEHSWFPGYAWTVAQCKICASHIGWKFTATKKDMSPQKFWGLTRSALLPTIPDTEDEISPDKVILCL
T1 sequence (Q16531 whole entry partner): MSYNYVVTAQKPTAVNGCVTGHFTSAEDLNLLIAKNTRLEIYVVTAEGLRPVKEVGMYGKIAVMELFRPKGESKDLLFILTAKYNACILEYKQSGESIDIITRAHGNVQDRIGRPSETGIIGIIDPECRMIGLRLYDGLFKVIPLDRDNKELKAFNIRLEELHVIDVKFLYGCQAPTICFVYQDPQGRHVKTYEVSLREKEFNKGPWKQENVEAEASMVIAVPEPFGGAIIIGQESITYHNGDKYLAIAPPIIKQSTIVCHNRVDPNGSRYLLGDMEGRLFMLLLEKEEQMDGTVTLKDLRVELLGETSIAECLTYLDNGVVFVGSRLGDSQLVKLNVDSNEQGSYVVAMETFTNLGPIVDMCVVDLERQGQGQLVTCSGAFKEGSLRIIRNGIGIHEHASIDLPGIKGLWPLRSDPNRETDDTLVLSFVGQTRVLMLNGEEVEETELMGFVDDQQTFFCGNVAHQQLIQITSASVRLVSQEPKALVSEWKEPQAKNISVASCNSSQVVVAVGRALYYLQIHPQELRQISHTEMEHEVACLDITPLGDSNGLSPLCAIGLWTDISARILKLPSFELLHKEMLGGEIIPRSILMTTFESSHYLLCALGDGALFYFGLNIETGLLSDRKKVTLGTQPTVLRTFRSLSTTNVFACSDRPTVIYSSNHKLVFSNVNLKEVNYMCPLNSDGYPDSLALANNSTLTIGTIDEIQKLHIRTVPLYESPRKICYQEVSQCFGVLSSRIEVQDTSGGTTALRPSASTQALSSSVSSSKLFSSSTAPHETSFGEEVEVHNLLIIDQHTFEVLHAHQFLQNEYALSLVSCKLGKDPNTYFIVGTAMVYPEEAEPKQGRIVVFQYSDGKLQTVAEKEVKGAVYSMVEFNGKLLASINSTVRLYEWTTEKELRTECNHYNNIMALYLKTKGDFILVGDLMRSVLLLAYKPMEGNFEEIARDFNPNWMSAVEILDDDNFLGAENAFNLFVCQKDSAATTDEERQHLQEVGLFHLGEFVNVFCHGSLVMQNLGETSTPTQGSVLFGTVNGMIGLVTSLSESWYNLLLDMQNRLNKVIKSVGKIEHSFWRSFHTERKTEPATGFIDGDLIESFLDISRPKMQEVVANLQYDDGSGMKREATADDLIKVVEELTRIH
How it was run: (§1)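 Jurkat cells (80,000/well, RPMI+10% FBS) were exposed to compound for 72 h at 37 °C, then fixed, permeabilized and co-stained for 1 h with Ikaros-Alexa488 and Helios-PE antibodies. Intracellular protein levels were read by flow cytometry.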

Ikaros = biological target: T2, Ikaros (Homo sapiens, UniProt Q13422); test: Helios Cellular Degradation Assay, Ikaros readout (flow cytometry, Ikaros-Alexa488 antibody staining, 72 h); type: cell-based; conditions: for Dmax: Jurkat, read-out: Ikaros Dmax
T2 construct: fluorescently labelled antibodies against Helios and Ikaros; endogenous in cells; host or cells: Jurkat cells
T2 sequence (Q96SW2 whole entry partner): as the sequence (Q96SW2 whole entry) above
T2 sequence (Q16531 whole entry partner): as the sequence (Q16531 whole entry partner) above
T2 sequence (Q13422 whole entry): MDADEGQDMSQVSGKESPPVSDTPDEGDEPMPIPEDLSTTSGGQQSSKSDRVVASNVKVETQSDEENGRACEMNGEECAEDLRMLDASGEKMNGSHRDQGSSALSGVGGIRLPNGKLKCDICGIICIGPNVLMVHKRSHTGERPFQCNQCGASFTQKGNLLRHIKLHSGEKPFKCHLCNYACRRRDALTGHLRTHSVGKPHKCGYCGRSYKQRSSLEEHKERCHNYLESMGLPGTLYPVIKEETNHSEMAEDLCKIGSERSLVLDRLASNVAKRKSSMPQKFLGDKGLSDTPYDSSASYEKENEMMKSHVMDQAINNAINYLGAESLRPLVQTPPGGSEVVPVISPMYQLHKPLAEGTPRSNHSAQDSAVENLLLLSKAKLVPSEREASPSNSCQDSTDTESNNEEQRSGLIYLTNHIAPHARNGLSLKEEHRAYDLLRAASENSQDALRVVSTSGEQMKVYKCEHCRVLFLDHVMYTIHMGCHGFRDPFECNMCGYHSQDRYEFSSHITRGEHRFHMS
How it was run: as §1

[1] = Jurkat cells, 72 h incubation, flow cytometry

Row | Structure (SMILES) | DC50 (Helios; [1]) [µM] | Dmax (Helios; [1]) [%] | DC50 (Ikaros; [1]) [µM] | Dmax (Ikaros; [1]) [%] | Dmax (Helios) [%] | Dmax (Ikaros) [%]
1 | CNCc1ccnc(-c2ccc3c(c2)CN(C2CCC(=O)NC2=O)C3=O)c1 (stereo not shown) [Example 145, 3-(5-{4-[(Methylamino)methyl]pyridin-2-yl}-1-oxo-2,3-dihydro-1H-isoindol-2-yl) piperidine-2,6-dione] | 0.067 | 93 | > 10 | 11 | – | –
2 | CN(Cc1ccc(S(=O)(=O)N(C)C)cc1)Cc1ccnc(-c2ccc3c(c2)CN(C2CCC(=O)NC2=O)C3=O)c1 (stereo not shown) [Example 146, 4-{[({2-[2-(2,6-Dioxopiperidin-3-yl)-1-oxo-2,3-dihydro-1H-isoindol-5-yl]pyridin-4-yl}methyl)(methyl)amino]methyl}-N,N-dimethylbenzene-1-sulfonamide] | > 10 | 3 | > 10 | 5 | – | –
3 | CN(Cc1ccc(F)cc1)Cc1ccnc(-c2ccc3c(c2)CN(C2CCC(=O)NC2=O)C3=O)c1 (stereo not shown) [Example 147, 3-(5-(4-(((4-fluorobenzyl)(methyl)amino)methyl)pyridin-2-yl)-1-oxoisoindolin-2-yl)piperidine-2,6-dione] | 0.226 | 74 | > 10 | 4 | – | –
4 | CN(Cc1cccc(C(F)(F)F)c1)Cc1ccnc(-c2ccc3c(c2)CN(C2CCC(=O)NC2=O)C3=O)c1 (stereo not shown) [Example 148, 3-(5-(4-((methyl(3-(trifluoromethyl)benzyl)amino)methyl)pyridin-2-yl)-1-oxoisoindolin-2-yl)piperidine-2,6-dione] | 0.238 | – | > 10 | – | 75 | 9
5 | CN(Cc1ccc(C(F)(F)F)cc1)Cc1ccnc(-c2ccc3c(c2)CN(C2CCC(=O)NC2=O)C3=O)c1 (stereo not shown) [Example 149, 3-(5-(4-((methyl(4-(trifluoromethyl)benzyl)amino)methyl)pyridin-2-yl)-1-oxoisoindolin-2-yl)piperidine-2,6-dione] | > 10 | 17 | > 10 | 6 | – | –
6 | CN(Cc1ccc(C#N)cc1)Cc1ccnc(-c2ccc3c(c2)CN(C2CCC(=O)NC2=O)C3=O)c1 (stereo not shown) [Example 150, 4-((((2-(2-(2,6-dioxopiperidin-3-yl)-1-oxoisoindolin-5-yl)pyridin-4-yl)methyl)(methyl)amino)methyl)benzonitrile] | > 10 | 45 | > 10 | 17 | – | –
7 | CN(Cc1ccc([N+](=O)[O-])cc1)Cc1ccnc(-c2ccc3c(c2)CN(C2CCC(=O)NC2=O)C3=O)c1 (stereo not shown) [Example 151, 3-(5-(4-((methyl(4-nitrobenzyl)amino)methyl)pyridin-2-yl)-1-oxoisoindolin-2-yl)piperidine-2,6-dione] | > 10 | 23 | > 10 | 1 | – | –
8 | CN(Cc1ccnc(-c2ccc3c(c2)CN(C2CCC(=O)NC2=O)C3=O)c1)Cc1ccc(F)c(F)c1 (stereo not shown) [Example 152, 3-(5-(4-(((3,4-difluorobenzyl)(methyl)amino)methyl)pyridin-2-yl)-1-oxoisoindolin-2-yl)piperidine-2,6-dione] | 0.85 | 55 | > 10 | 7 | – | –
9 | COC(=O)c1ccc(CN(C)Cc2ccnc(-c3ccc4c(c3)CN(C3CCC(=O)NC3=O)C4=O)c2)cc1 (stereo not shown) [Example 153, methyl 4-((((2-(2-(2,6-dioxopiperidin-3-yl)-1-oxoisoindolin-5-yl)pyridin-4-yl)methyl)(methyl)amino)methyl)benzoate] | 4.71 | 58 | > 10 | 7 | – | –
10 | CN(Cc1ccc(Cl)cc1)Cc1ccnc(-c2ccc3c(c2)CN(C2CCC(=O)NC2=O)C3=O)c1 (stereo not shown) [Example 154, 3-(5-(4-(((4-chlorobenzyl)(methyl)amino)methyl)pyridin-2-yl)-1-oxoisoindolin-2-yl)piperidine-2,6-dione] | 3.26 | 54 | > 10 | 6 | – | –
11 | CN(Cc1ccnc(-c2ccc3c(c2)CN(C2CCC(=O)NC2=O)C3=O)c1)Cc1cccc2cccnc12 (stereo not shown) [Example 155, 3-(5-(4-((methyl(quinolin-8-ylmethyl)amino)methyl)pyridin-2-yl)-1-oxoisoindolin-2-yl)piperidine-2,6-dione] | 1.58 | 57 | > 10 | 0 | – | –
12 | CN(Cc1cccc(OC(F)(F)F)c1)Cc1ccnc(-c2ccc3c(c2)CN(C2CCC(=O)NC2=O)C3=O)c1 (stereo not shown) [Example 156, 3-(5-(4-((methyl(3-(trifluoromethoxy)benzyl)amino)methyl)pyridin-2-yl)-1-oxoisoindolin-2-yl)piperidine-2,6-dione] | 1.83 | 56 | > 10 | 11 | – | –
13 | CN(Cc1ccc(S(C)(=O)=O)cc1)Cc1ccnc(-c2ccc3c(c2)CN(C2CCC(=O)NC2=O)C3=O)c1 (stereo not shown) [Example 157, 3-(5-(4-((methyl(4-(methylsulfonyl)benzyl)amino)methyl)pyridin-2-yl)-1-oxoisoindolin-2-yl)piperidine-2,6-dione] | > 10 | 38 | > 10 | 8 | – | –
14 | COc1cccc(CN(C)Cc2ccnc(-c3ccc4c(c3)CN(C3CCC(=O)NC3=O)C4=O)c2)c1 (stereo not shown) [Example 158, 3-(5-(4-(((3-methoxybenzyl)(methyl)amino)methyl)pyridin-2-yl)-1-oxoisoindolin-2-yl)piperidine-2,6-dione] | 0.256 | 74 | > 10 | 3 | – | –
15 | CN(Cc1cccnc1)Cc1ccnc(-c2ccc3c(c2)CN(C2CCC(=O)NC2=O)C3=O)c1 (stereo not shown) [Example 159, 3-(5-(4-((methyl(pyridin-3-ylmethyl)amino)methyl)pyridin-2-yl)-1-oxoisoindolin-2-yl)piperidine-2,6-dione] | 0.136 | 76 | > 10 | 25 | – | –
16 | CN(Cc1ccncc1)Cc1ccnc(-c2ccc3c(c2)CN(C2CCC(=O)NC2=O)C3=O)c1 (stereo not shown) [Example 160, 3-(5-(4-((methyl(pyridin-4-ylmethyl)amino)methyl)pyridin-2-yl)-1-oxoisoindolin-2-yl) piperidine-2,6-dione] | 0.359 | 70 | > 10 | 30 | – | –
17 | Cc1ccc(CN(C)Cc2ccnc(-c3ccc4c(c3)CN(C3CCC(=O)NC3=O)C4=O)c2)cc1 (stereo not shown) [Example 161, 3-(5-(4-((methyl(4-methylbenzyl)amino)methyl)pyridin-2-yl)-1-oxoisoindolin-2-yl)piperidine-2,6-dione] | 0.067 | 83 | > 10 | 17 | – | –
18 | CN(Cc1ccnc(-c2ccc3c(c2)CN(C2CCC(=O)NC2=O)C3=O)c1)Cc1ccc2ccccc2c1 (stereo not shown) [Example 162, 3-(5-(4-((methyl(naphthalen-2-ylmethyl)amino)methyl)pyridin-2-yl)-1-oxoisoindolin-2-yl)piperidine-2,6-dione] | 1.09 | 63 | > 10 | 2 | – | –
19 | O=C1CCC(N2Cc3cc(-c4cc(CN(Cc5ccccc5)Cc5ccccc5)ccn4)ccc3C2=O)C(=O)N1 (stereo not shown) [Example 163, 3-(5-{4-[(Dibenzylamino)methyl]pyridin-2-yl}-1-oxo-2,3-dihydro-1H-isoindol-2-yl)piperidine-2,6-dione] | 1.02 | 56 | > 10 | 31 | – | –
20 | CN(Cc1ccccc1)Cc1ccnc(-c2ccc3c(c2)CN(C2CCC(=O)NC2=O)C3=O)c1 (stereo not shown) [Example 164, 3-[5-(4-{[Benzyl(methyl)amino]methyl}pyridin-2-yl)-1-oxo-2,3-dihydro-1H-isoindol-2-yl]piperidine-2,6-dione] | 0.062 | 77 | > 10 | 10 | – | –
21 | O=C1CCC(N2Cc3cc(-c4cc(CN5CCC5)ccn4)ccc3C2=O)C(=O)N1 (stereo not shown) [Example 165, 3-(5-{4-[(Azetidin-1-yl)methyl]pyridin-2-yl}-1-oxo-2,3-dihydro-1H-isoindol-2-yl) piperidine-2,6-dione] | 0.056 | 95 | > 10 | 14 | – | –
22 | O=C1CCC(N2Cc3cc(-c4cc(CN5CCOCC5)ccn4)ccc3C2=O)C(=O)N1 (stereo not shown) [Example 166, 3-(5-{4-[(Morpholin-4-yl)methyl]pyridin-2-yl}-1-oxo-2,3-dihydro-1H-isoindol-2-yl) piperidine-2,6-dione] | 7.86 | 52 | > 10 | 7 | – | –
23 | O=C1CCC(N2Cc3cc(-c4cc(CN5CCS(=O)(=O)CC5)ccn4)ccc3C2=O)C(=O)N1 (stereo not shown) [Example 167, 4-({2-[2-(2,6-Dioxopiperidin-3-yl)-1-oxo-2,3-dihydro-1H-isoindol-5-yl]pyridin-4-yl}methyl)-1λ6-thiomorpholine-1,1-dione] | > 10 | 41 | > 10 | 12 | – | –
24 | COc1ccc(CN(C)Cc2ccnc(-c3ccc4c(c3)CN(C3CCC(=O)NC3=O)C4=O)c2)cn1 (stereo not shown) [Example 168, 3-{5-[4-({[(6-Methoxypyridin-3-yl)methyl](methyl)amino}methyl)pyridin-2-yl]-1-oxo-2,3-dihydro-1H-isoindol-2-yl}piperidine-2,6-dione] | 0.309 | 77 | > 10 | 20 | – | –
25 | CN(Cc1ccnc(-c2ccc3c(c2)CN(C2CCC(=O)NC2=O)C3=O)c1)Cc1cccc2[nH]ncc12 (stereo not shown) [Example 169, 3-(5-(4-((((1H-indazol-4-yl)methyl)(methyl)amino)methyl)pyridin-2-yl)-1-oxoisoindolin-2-yl)piperidine-2,6-dione] | 0.195 | 79 | > 10 | 16 | – | –
